Assay results taken from PMC11937066, “Abemaciclib in combination with therapies for patients with metastatic breast cancer: a phase 1b study” (Frontiers in Oncology, 2025).
Read-outs that look alike come from different tables or passages of the source. Values belong to the molecule of their own block, whether it stands above or below them.

Tests used:
[1] = system: patients with HR+, HER2- or HER2+ metastatic breast cancer; experiment: Patient disposition and dose adjustments; settings: Part G, with abemaciclib and fulvestrant
[2] = Plasma pharmacokinetics, noncompartmental analysis (LC-MS/MS); assay type: in vivo, human
Protocol: In parts E, F, and H, PK sampling was performed for all analytes pre-dose on Cycle 1 Day 1, Cycle 1 Day 15, and Cycle 2 Day 1, as well as at 1, 2, 4, 6, 8, and 10 hours after dosing on Cycle 1 Day 1 and Cycle 2 Day 1. In Part H, PK sampling was performed for all analytes pre-dose on Cycle 1 Day 1, Cycle 1 Day 15, and Cycle 2 Day 1, as well as at 1, 2, 4, 6, 8, and 10 hours after dosing on Cycle 1 Day 1 and 2, 4, 6, 8, and 10 hours after dosing on Cycle 2 Day 1. In Parts F and H, additional samples were drawn pre-dose on Day 1 of Cycles 3–5 and after trastuzumab infusion on Day 1 of Cycles 1–5. In part H, additional samples were also drawn after pertuzumab infusion on Day 1 Cycle 4 and 5. In Part G, an additional pre-dose sample was drawn on Cycle 3 Day 1, and fulvestrant samples were obtained pre-dose on Day 1 of Cycles 1–3 and Day 15 of Cycle 1.
Samples were analyzed for abemaciclib (and its metabolites), exemestane, everolimus, fulvestrant, LY3023414, and pertuzumab using a validated liquid chromatography-tandem mass spectrometry method (abemaciclib and metabolites: Q^2 solutions, Ithaca, NY, USA; exemestane and everolimus: BASi, West Lafayette, IN, USA; fulvestrant: Charles River Laboratories, Montreal, Quebec, Canada; LY3023414: Covance Laboratories Inc, Madison, WI, USA; pertuzumab: Altasciences Company Inc., Quebec, Canada). Trastuzumab was analyzed using a validated Gyrolab xP method (PPD, Richmond, VA, USA).
Standard noncompartmental PK parameters were computed using Phoenix WinNonlin 64 Build 8.0/8.1 (Pharsight Corporation, Mountain View, CA, USA). This analysis included estimation of Cmax, tmax, Clast, tlast, and AUC0-tlast. AUC calculations were performed using the log linear trapezoidal method.

[3] = system: HER2+ breast cancer; settings: abemaciclib combined with fulvestrant and trastuzumab versus standard of care chemotherapy plus trastuzumab; cited from earlier work
[4] = system: HR+ advanced breast cancer; design: method as in PMID 32887722; settings: in combination with ribociclib and fulvestrant; cited from earlier work
[5] = system: PIK3CA-mutated, HR+, HER2- ABC; design: method as in doi:10.1158/1538-7445.SABCS23-GS03-13; settings: with fulvestrant and palbociclib, first-line treatment; cited from earlier work

LY3023414 dose adjustments ([1]; 12 patients): 10 patients
LY3023414 dose omission ([1]; 12 patients): eight
LY3023414 dose reduction ([1]; 12 patients): seven
SMILES: CO[C@@H](C)Cn1c(=O)n(C)c2cnc3ccc(-c4cncc(C(C)(C)O)c4)cc3c21 [LY3023414]
Additional patients who discontinued LY3023414 due to AEs [1]: two

mean accumulation ratio (based on Cmax) ([2]; Part E Cohort 1, abemaciclib 150 mg Q12H with exemestane + everolimus): 3.16
mean AUC0-tlast ([2]; Part E Cohort 1, multiple doses abemaciclib 150 mg Q12H with exemestane + everolimus): 3280 hr^*ng/mL
mean AUC0-tlast ([2]; Part E Cohort 1, single dose abemaciclib 150 mg with exemestane + everolimus): 771 hr^*ng/mL
mean AUC0-tlast ([2]; Part E Cohort 2, single dose abemaciclib 200 mg with exemestane + everolimus): 984 hr^*ng/mL
accumulation ratio based on Cmax ([2]; Part F, abemaciclib 150 mg Q12H with trastuzumab): 2.13
mean AUC0-tlast ([2]; Part H, single dose abemaciclib 100 mg with trastuzumab and pertuzumab): 343 hr^*ng/mL
Effect on the pharmacokinetics of the combination study drugs ([2]; Parts E–H): no effect
Abemaciclib exposures compared with monotherapy PK data ([2]; all combination therapies tested): consistent with monotherapy PK data
Cmax ([2]; human, plasma, oral, 100 mg, Part H, single dose abemaciclib 100 mg with trastuzumab and pertuzumab, read-out: mean Cmax): 71.5 ng/mL
Cmax ([2]; human, plasma, oral, 150 mg, Part E Cohort 1, multiple doses abemaciclib 150 mg Q12H with exemestane + everolimus, read-out: mean Cmax): 452 ng/mL
Cmax ([2]; human, plasma, oral, 150 mg, Part E Cohort 1, single dose abemaciclib 150 mg with exemestane + everolimus, plasma, read-out: mean Cmax): 157 ng/mL
Cmax ([2]; human, plasma, oral, 150 mg, Part F, abemaciclib 150 mg Q12H with trastuzumab, read-out: steady-state mean Cmax): 242 ng/mL
Cmax ([2]; human, plasma, oral, 200 mg, Part E Cohort 2, single dose abemaciclib 200 mg with exemestane + everolimus, plasma, read-out: mean Cmax): 191 ng/mL
Cmax ([2]; human, plasma, oral, Part F, single dose abemaciclib (150 mg or 200 mg) with trastuzumab, range over dose cohorts, read-out: mean Cmax): 133 to 148 ng/mL
Cmax ([2]; human, plasma, oral, Part G, single dose 150 mg abemaciclib with 500 mg fulvestrant and 100 mg or 150 mg LY3023414, range over cohorts, read-out: abemaciclib mean Cmax): 131 to 139 ng/mL
AUC(0-t) ([2]; human, plasma, oral, Part F, abemaciclib 150 mg Q12H with trastuzumab, read-out: steady-state mean AUC0-tlast): 1660 ng·h/mL
SMILES: CCN1CCN(Cc2ccc(Nc3ncc(F)c(-c4cc(F)c5nc(C)n(C(C)C)c5c4)n3)nc2)CC1 [abemaciclib]
Progression-free survival [3]: significantly improved

SMILES: Cc1nc(NC(=O)N2CCC[C@H]2C(N)=O)sc1-c1ccnc(C(C)(C)C(F)(F)F)c1 [alpelisib]
Feasibility of the combination [4]: not to be feasible due to toxicity

SMILES: Nc1cc(C(F)(F)F)c(-c2cc(N3CCOCC3)nc(N3CCOCC3)n2)cn1 [buparlisib]
Feasibility of the combination [4]: not to be feasible due to toxicity

SMILES: C[C@H](Nc1ccc2c(c1)OCCn1cc(N3C(=O)OC[C@H]3C(F)F)nc1-2)C(N)=O [inavolisib]
Progression-free survival [5]: statistically significant improvement
